What all share (type): cell-based, human
One test relates to TUS/R MOLM-14 cells. The experiment in a line: Growth inhibition of TUS-resistant sublines versus parental.
The subject of test [1] is MV-4-11 NRAS G12D Clone 1. The experiment in a line: Growth inhibition of NRAS G12D clone. Particulars: MV-4-11 NRAS G12D, mean ± SEM. On the procedure: (§1) MV-4-11 cells expressing NRAS^G12D were prepared by transduction with a lentiviral vector encoding the NRAS^G12D mutation. Assays using a panel of parental Ba/F3 into which an additional copy of either WT or a mutant form of FLT3 was introduced were performed at Kyinno Biotechnology Co., Ltd. All cell lines were short tandem repeat authenticated at ATCC or at DSMZ when originally obtained, and no further authentication was done after receipt of the cells in the laboratory.
(§2) Assays using Ba/F3 cells expressing WT and mutant forms of FLT3 were performed by Kyinno Biotechnology. The cells were cultured in the medium recommended by the source for each cell line. Growth inhibition assays were performed using either Cell Titer 96 Aqueous One Solution Cell Proliferation assay (Promega, # G3581) or CCK8 (Dojindo, # CK-04). […] IC50 values were determined from growth inhibition curves fitted using GraphPad Prism and a nonlinear regression model with sigmoidal dose response. Unless otherwise indicated, data are presented as mean ± SEM.

Test [2] concerns MV-4-11 NRAS G12D Clone 4. The experiment in a line: Growth inhibition of NRAS G12D clone. As to conditions: MV-4-11 NRAS G12D, high expression, mean ± SEM, read-out: GI50 (nM) Clone 4. The procedure:
as §1, §2

In test [3] the test system is MV-4-11 NRAS G12D Clone 15. The test is described as follows: Growth inhibition of NRAS G12D clone. Particulars: MV-4-11 NRAS G12D, mean ± SEM. The procedure: as §1, §2
For a further test, the system named is TUS/R line 3 (MOLM-14). The test is described as follows: Growth inhibition of TUS-resistant subline. Particulars: mean ± SEM (Supplementary Table 6).
In another test the test system is TUS/R line 4 (MOLM-14). The experiment in a line: Growth inhibition of TUS-resistant subline. Particulars: mean ± SEM (Supplementary Table 6).
The next test concerns MOLM-14 cells (parental). The test is described as follows: Growth inhibition of AML cell line. As to conditions: mean ± SEM (Supplementary Table 6), read-out: GI50 (nM) Parental MOLM-14 (converted). On the procedure: as §1, §2
A further test has as its system MV-4-11 cells. The experiment in a line: Growth inhibition of AML cell line. As to conditions: mean ± SEM (Supplementary Table 7), read-out: GI50 (nM) Parental (MV-4-11). On the procedure: as §1, §2
Where [4] appears, read: Homo sapiens, MOLM-14, read-out: GI50 (nM) TUS/R line 3.
Where [5] appears, read: Homo sapiens, MOLM-14, read-out: GI50 (nM) TUS/R line 4.

Structures are written as SMILES. Like-named read-outs stand apart in the source and are kept apart here.

From PMC11725774 (Cancer Research Communications, 2025) come the findings set out here.

Consider `Cc1c(-c2c(-c3ccc(F)o3)sc3ncnc(O[C@H](Cc4ccccc4OCc4ccnn4CC(F)(F)F)C(=O)O)c23)ccc(OCCN2CCN(C)CC2)c1Cl` [S63845], for which the “fold hypersensitive, TUS/R versus parental MOLM-14” value (“fold hypersensitive” for short) with TUS/R MOLM-14 cells was around 20 fold. For the same compound, the GI50 was 1.1 ± 0.3 nM in test [1]; 7.3 ± 1.5 nM in test [2]; 1.5 ± 0.1 nM in test [3]; 5.6 ± 0.7 nM in the test on TUS/R line 3 (MOLM-14) (read-out: GI50 (nM) TUS/R line 3); 4.6 ± 0.3 nM with TUS/R line 4 (MOLM-14) (read-out: GI50 (nM) TUS/R line 4); 105 ± 19.8 nM in the test with MOLM-14 cells (parental). Besides, the GI50 in the test with MV-4-11 cells stood at 4.6 ± 0.4 nM.

Take `COc1cc(Nc2ncc(F)c(Nc3ccc4c(n3)N(COP(=O)(O)O)C(=O)C(C)(C)O4)n2)cc(OC)c1OC` [Fostamatinib, fostamatinib]: in the test on TUS/R MOLM-14 cells, the “fold hypersensitive” value is on record as “not more sensitive”. The GI50 came to 176 ± 32.9 nM in the test on TUS/R line 3 (MOLM-14) (setting [4]) and 459 ± 86.2 nM in the test with TUS/R line 4 (MOLM-14) (setting [5]).

`CC1(C)CCC(c2ccc(Cl)cc2)=C(CN2CCN(c3ccc(C(=O)NS(=O)(=O)c4ccc(N[C@H](CCN5CCOCC5)CSc5ccccc5)c(S(=O)(=O)C(F)(F)F)c4)cc3)CC2)C1` [Navitoclax, navitoclax]: in the test on TUS/R MOLM-14 cells, the “fold hypersensitive” value is listed as around 27 fold. Besides, the GI50 in the test with TUS/R line 3 (MOLM-14) (setting [4]) is 15.3 ± 2.4 nM; with TUS/R line 4 (MOLM-14) (setting [5]) it was 15 ± 2.1 nM; in the test on MOLM-14 cells (parental) (Homo sapiens, MOLM-14), 410 ± 50.2 nM.

As for `Cc1ccc2c(Nc3cccc(Cl)c3F)nccc2c1NC(=O)c1csc2c(N)ncnc12` [Belvarafenib, belvarafenib], the GI50 came out at 187 ± 38.6 nM in test [1] (Homo sapiens, MV4-11); 209 ± 33.9 nM in test [2] (Homo sapiens, MV4-11); 104 ± 11.1 nM in test [3] (Homo sapiens, MV4-11); 750 ± 92.8 nM with MV-4-11 cells (Homo sapiens, MV4-11).

Take `Cn1c(=O)n(-c2ccc(C(C)(C)C#N)cc2)c2c3cc(-c4cnc5ccccc5c4)ccc3ncc21` [Dactolisib, dactolisib]: in the test with TUS/R MOLM-14 cells, the “fold hypersensitive” value is on record as “not more sensitive”. Besides, the GI50 was 28.9 ± 2.7 nM in the test on TUS/R line 3 (MOLM-14) (setting [4]); 26.8 ± 1.8 nM in the test on TUS/R line 4 (MOLM-14) (setting [5]); 21.3 ± 1.4 nM in the test with MOLM-14 cells (parental) (Homo sapiens, MOLM-14).

For the compound `Cc1c2c(nn1C)CSCc1cc(n(C)n1)CSc1cc(c3ccccc3c1)OCCCc1c(C(=O)O)n(C)c3c-2c(Cl)ccc13` [AZD5991], the “fold hypersensitive” value in the test on TUS/R MOLM-14 cells is listed as around 8 fold. Also, the GI50 is 10.1 ± 3.2 nM in test [1] (Homo sapiens, MV4-11); 44.3 ± 8.3 nM in test [2] (Homo sapiens, MV4-11); 7.2 ± 0.4 nM in test [3] (Homo sapiens, MV4-11); 22.8 ± 2.7 nM with TUS/R line 3 (MOLM-14) (setting [4]); 18.2 ± 1.6 nM with TUS/R line 4 (MOLM-14) (setting [5]); 168 ± 33.7 nM with MOLM-14 cells (parental) (Homo sapiens, MOLM-14). The GI50 in the test with MV-4-11 cells (Homo sapiens, MV4-11) was 32.5 ± 5.4 nM.

For the compound `COC1=CC(c2cc3ccccc3[nH]2)=N/C1=C\c1[nH]c(C)cc1C` [Obatoclax, obatoclax], the “fold hypersensitive” value in the test on TUS/R MOLM-14 cells is on record as “no increase in sensitivity”. Moreover, the GI50 in the test on TUS/R line 3 (MOLM-14) (setting [4]) is 164 ± 14.7 nM; in the test on TUS/R line 4 (MOLM-14) (setting [5]), 142 ± 9.1 nM; with MOLM-14 cells (parental) (Homo sapiens, MOLM-14), 98.2 ± 7.7 nM.

Regarding `Cc1cnc(-c2ccc(-c3ccc(NC(=O)Nc4c(F)cc(F)cc4F)cc3F)c3c2C(=O)NC3)[nH]1` [Luxeptinib], the GI50 in the test on TUS/R line 3 (MOLM-14) (setting [4]) is 0.1 ± 0.01 nM; in the test on TUS/R line 4 (MOLM-14) (setting [5]), 0.1 ± 0.01 nM; in the test with MOLM-14 cells (parental) (Homo sapiens, MOLM-14), 0.2 ± 0.01 nM.

As for `N#CC[C@H](C1CCCC1)n1cc(-c2ncnc3[nH]ccc23)cn1` [Ruxolitinib, ruxolitinib], the results for the GI50 with TUS/R line 3 (MOLM-14) (setting [4]) and in the test with TUS/R line 4 (MOLM-14) (setting [5]) were around 1100 nM and around 1130 nM, respectively.

For the compound `Nc1ncn([C@@H]2O[C@H](CO)[C@@H](O)[C@H]2O)c(=O)n1` [5-Azacytidine, 5-azacytidine], the GI50 in the test with TUS/R line 3 (MOLM-14) (setting [4]) is 1620 ± 294 nM; in the test with TUS/R line 4 (MOLM-14) (setting [5]) it was 1580 ± 145 nM; in the test on MOLM-14 cells (parental) (Homo sapiens, MOLM-14), 2140 ± 231 nM.

Turning to `CC(=O)Nc1cccc(-n2c(=O)n(C3CC3)c(=O)c3c(Nc4ccc(I)cc4F)n(C)c(=O)c(C)c32)c1` [Trametinib, trametinib], the “fold hypersensitive” value with TUS/R MOLM-14 cells was around 1.9 fold. The GI50 in test [1] (Homo sapiens, MV4-11) was 1.6 ± 0.4 nM; in test [2] (Homo sapiens, MV4-11), 2.5 ± 0.7 nM; in test [3] (Homo sapiens, MV4-11), 2.3 ± 0.8 nM; with TUS/R line 3 (MOLM-14) (setting [4]), 67 ± 12.8 nM; in the test with TUS/R line 4 (MOLM-14) (setting [5]), 101.5 ± 0.4 nM; in the test with MOLM-14 cells (parental) (Homo sapiens, MOLM-14), 153 ± 14.5 nM. In addition, in the test on MV-4-11 cells (Homo sapiens, MV4-11), the GI50 is 6.7 ± 1.6 nM.
